Source: patent US20230312550A1, “N-(2-(4-CYANOTHIAZOLIDIN-3-YL)-2-OXOETHYL)-QUINOLINE-4-CARBOXAMIDES” (AstraZeneca AB, priority 2020, published 2023)
Converted amounts (≈) assume the structure as drawn.

Tests used:
FAP [1] = target: FAP (Mus musculus (Mouse), UniProt P97321); test: FAP plasma inhibition assay, mouse plasma; assay type: biochemical; conditions: mouse plasma diluted 1:67, Ala-Pro-AMC 75 μM
Description: (§1) This assay was adapted from the method described in Example 237 for detection of FAP target engagement enzyme activity in plasma. Plasma (anticoagulant K2EDTA) was used as the enzyme source: Human plasma (Pooled from AZ Biobank), Mouse plasma (AZ AST Biobank), and Cynomolgus plasma (BioIVT, #NHP00PLK2FNN, lot CYN222895). 384-Well black fluotrack PS plates (Greiner 781076) were used. 20 μL diluted plasma (Cynomolgus and Human plasma dilution 1:40, Mouse plasma dilution 1:67) in buffer (PBS, 0.1% BSA) was added to 0.6 μL compounds (in DMSO). Compounds were tested using 10 CR, 3 fold dilution series from 500 nM FAC. Two replicates for each assay point were run on the same plate. A fluorescence blank read was taken before substrate addition. […] Plates were incubated for 40 min at rt in the dark. […] IC50 values were determined by plotting % inhibition versus log compound concentration.

[2] = target: human dipeptidylpeptidase 7 (hDPP7) (Homo sapiens (Human), UniProt Q9UHL4); test: hDPP7 inhibition assay; assay type: biochemical; conditions: hDPP7 15 nM, Ala-Pro-amino-methylcoumarin 5 μM, n = 1
Description: Compounds were tested in a biochemical inhibition assay using human dipeptidylpeptidase 7 (hDPP7) enzyme at 15 nM FAC (BPS Bioscience, #80070) and the substrate Ala-Pro-amino-methylcoumarin (BPS Bioscience, #80305) at 5 μM FAC. The enzymatic reactions were conducted in duplicate at rt for 30 min in 50 μL DPP assay buffer (BPS Bioscience, #80300). Compound solutions (in DMSO) at 10 CR, 3 fold dilution series were prepared in assay buffer ten-fold higher than the final concentration, and 5 μL of the dilution was added to a 50 μL reaction so that the highest compound concentration was 100 μM FAC and the concentration of DMSO was 1% in all wells. The plates were read on a Tecan Infinite M1000 microplate reader with excitation 340 nm and emission 460 nm. Data were analyzed in Graph Pad Prism. IC50 values were determined by plotting % inhibition versus log compound concentration and using a one site dose response model. Raw data signals were normalized using 1% DMSO as 0% control and no enzyme as 100% inhibitor control.

Kinetic solubility = conditions: kinetic from dmso stock
Description: Kinetic solubility was measured as described in Comput Aided Mol Des 2015, 29, 795.

[3] = Metabolic stability in rat hepatocytes (rHep); conditions: n = 1 or geometric mean of n = 2-3
[4] = Metabolic stability in human liver microsomes (HLM); conditions: human
Description: Metabolic stability in HLM was measured as described in J Comput Aided Mol Des 2015, 29, 795.

FAP [5] = target: T1, FAP (Homo sapiens (Human), UniProt Q12884); test: hFAP inhibition assay; assay type: biochemical; conditions: hFAP […], Ala-Pro-AMC 20 μM; n = 1 or geometric mean n = 2-3
In short: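 Human FAP (0.48 nM) in 100 mM Tris HCl, 100 mM NaCl, 0.05% Chaps, pH 7.4 was preincubated 15 min at rt in the dark with compounds (10-point, 3-fold series from 50 μM). Substrate was added from a 40 μM solution, then 30 min at rt. Fluorescence read at ex 340/em 460 nm; IC50 from one-site dose-response fit of % inhibition.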
Target sequence in this assay (Q12884 38-760): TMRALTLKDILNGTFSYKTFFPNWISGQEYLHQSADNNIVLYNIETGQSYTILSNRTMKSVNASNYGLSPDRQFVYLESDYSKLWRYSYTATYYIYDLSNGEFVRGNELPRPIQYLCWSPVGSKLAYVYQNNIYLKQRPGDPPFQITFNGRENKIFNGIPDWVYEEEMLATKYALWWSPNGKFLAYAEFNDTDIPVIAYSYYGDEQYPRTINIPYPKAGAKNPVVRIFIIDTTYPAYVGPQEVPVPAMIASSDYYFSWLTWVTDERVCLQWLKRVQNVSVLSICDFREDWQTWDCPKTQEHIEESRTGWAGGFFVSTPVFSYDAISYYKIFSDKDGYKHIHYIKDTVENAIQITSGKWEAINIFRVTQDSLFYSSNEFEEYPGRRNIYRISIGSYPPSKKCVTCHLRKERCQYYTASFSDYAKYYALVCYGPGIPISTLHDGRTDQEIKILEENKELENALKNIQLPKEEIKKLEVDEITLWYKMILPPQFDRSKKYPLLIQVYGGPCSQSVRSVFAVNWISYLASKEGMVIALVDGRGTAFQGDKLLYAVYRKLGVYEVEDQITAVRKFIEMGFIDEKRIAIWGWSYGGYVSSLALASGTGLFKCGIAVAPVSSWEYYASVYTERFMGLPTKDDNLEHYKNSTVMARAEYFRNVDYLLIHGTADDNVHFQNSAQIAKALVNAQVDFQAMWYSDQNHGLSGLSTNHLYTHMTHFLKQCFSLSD

[6] = target: human Fibroblast activation protein alpha (hFAP) (Homo sapiens (Human), UniProt Q12884); test: hFAP inhibition assay (tight binders); assay type: biochemical; conditions: Ala-Pro-AMC 20 μM, n = 1 or geometric mean n = 2-6; also: hFAP 2.4 pM
Description: The plates were read on a PHERAstar® reader with excitation 340 nm and emission 460 nm. Data were analyzed in Genedata Screener®. IC50 values were determined by plotting % inhibition versus log compound concentration and using a one site dose response model.

hFAP (M39-A757) = hFAP (M39-A757) (Homo sapiens (Human), UniProt Q12884); test: hFAP binding assay (surface plasmon resonance); conditions: SPR, 20° C.; for hFAP Binding assay k(off) / hFAP Binding assay k(on): single cycle kinetics; for Kd: n = 1 or geometric mean n = 2-4
Description: Compounds were tested in a direct binding assay using 8K surface plasmon resonance biosensor (GE Healthcare) at 20° C. Immobilization of hFAP (M39-A757) on a CMD200M sensor chip (Xantec) was performed using standard amine coupling procedure in immobilization buffer (10 mM HEPES, 150 mM NaCl, 0.05% Tween20, pH 7.4). The surface was washed with 10 mM NaOH, 1M NaCl before being activated with EDC/NHS (GE Healthcare), followed by immobilization of hFAP (in 10 mM Acetate pH 5.0). Finally, the surface was deactivated by ethanolamine. Immobilization levels of hFAP were around 4000-6000 RU. The reference spot was treated as described, omitting the injection of hFAP. Compound concentration series were injected over the immobilized protein in increasing concentrations (2-500 nM) using single cycle kinetics in running buffer (20 mM TRIS, 150 mM NaCl, 0.05% Tween20, 1% DMSO, pH 7.4). Interaction models were fitted globally to the experimental traces, enabling determination of kon, koff and Kd.

FAP [7] = target: T1, FAP; test: FAP plasma inhibition assay, human plasma; assay type: biochemical; conditions: human plasma diluted 1:40, Ala-Pro-AMC 75 μM
Description: as §1
Target sequence in this assay (Q12884 24-760): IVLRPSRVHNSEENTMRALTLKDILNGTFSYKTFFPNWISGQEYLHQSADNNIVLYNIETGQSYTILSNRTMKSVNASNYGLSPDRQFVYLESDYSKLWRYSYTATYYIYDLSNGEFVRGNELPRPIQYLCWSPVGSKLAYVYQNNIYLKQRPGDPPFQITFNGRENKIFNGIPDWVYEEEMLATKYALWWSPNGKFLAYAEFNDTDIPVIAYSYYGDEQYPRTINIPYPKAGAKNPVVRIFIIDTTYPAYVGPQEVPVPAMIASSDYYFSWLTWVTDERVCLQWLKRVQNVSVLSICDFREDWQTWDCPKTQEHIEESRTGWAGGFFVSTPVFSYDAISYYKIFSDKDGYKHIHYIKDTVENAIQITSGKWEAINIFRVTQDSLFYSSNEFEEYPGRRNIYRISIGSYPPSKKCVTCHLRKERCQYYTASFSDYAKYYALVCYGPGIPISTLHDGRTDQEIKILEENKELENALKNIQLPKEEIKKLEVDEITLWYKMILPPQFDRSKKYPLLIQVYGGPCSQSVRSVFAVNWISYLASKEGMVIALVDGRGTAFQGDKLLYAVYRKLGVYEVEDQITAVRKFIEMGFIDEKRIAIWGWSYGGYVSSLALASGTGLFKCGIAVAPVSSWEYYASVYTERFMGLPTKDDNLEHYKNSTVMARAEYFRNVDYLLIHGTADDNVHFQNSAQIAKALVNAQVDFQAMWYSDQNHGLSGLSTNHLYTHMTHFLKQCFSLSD

[8] = target: Prolyl endopeptidase, Prolyl Oligopeptidase (hPREP) (Homo sapiens (Human), UniProt P48147); test: hPrep inhibition assay; assay type: biochemical; conditions: hPREP 0.6 nM, Z-Gly-Pro-amino-methylcoumarin 50 μM; read-out: PREP IC50
In short: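 Recombinant human PREP at 0.6 nM final with Z-Gly-Pro-AMC substrate at 50 μM final in Tris-HCl pH 7.5, NaCl, Triton X-100, glutathione; 15 min rt preincubation then 20 min rt reaction in dark. AMC fluorescence (ex 340/em 460 nm); IC50 from one-site dose-response fit of % inhibition.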

[9] = Metabolic stability in human hepatocytes (hHep); assay type: in vitro ADME; conditions: n = 1 or geometric mean of n = 2
Caco-2 cell permeability = conditions: human
Description: Caco-2 cell permeability was measured as described in Mol Pharm 2017, 14, 1601.

[10] = target: Fibroblast Activation Protein alpha (FAP) (Mus musculus (Mouse), UniProt P97321); test: in vivo
Description: The effect of test compound on FAP enzyme activity in mouse plasma was evaluated in an enzymatic assay using the Fibroblast Activation Protein alpha (FAP) specific fluorogenic substrate dipeptide-Coumarin, Ala-Pro-AMC, (ARI-3144).
Male C57Bl/6 mice (Charles River, Germany), 8 weeks of age, were single housed in a temperature-controlled room with a 12-hour light/dark cycle (06:00-18:00 light). The mice had ad libitum access to water and rodent chow diet (R70, Lactamin, Kimstad, Sweden), and were acclimated for 5 days upon arrival. After acclimation, all mice received a single oral dose of test compound (3 or 10 mg/kg). Blood samples for whole blood compound exposure measurements were taken at 0.25, 0.5, 1, 2, 4, 8 and 24 h post oral dosing. Samples were collected in EDTA capillary tubes (20 μL, K2E, REF 19.447) and were transferred to a 96-deep well plate (NUNC, Thermo Discher Scientific) and stored at −20° C. until further analyses were performed. Blood samples for plasma FAP enzyme activity measurements were taken at 0, 0.25, 0.5, 1, 2, 8 and 24 h post dosing. 25 μL of whole blood was collected in EDTA Microvette® CB 300 (K2E, REF 16.444.100) tubes, and were centrifuged at 4,000×g for 5 min. 10 μL of plasma was then transferred to PCR tubes and stored at −20° C. until further analysis was performed. All blood samples were taken by vena saphena puncture.
Recombinant human FAP (PB-17-1837, construct PL-17-0278, cd33-FAP (27-757)-6His, Mw85926 Da) was used as a standard for this assay. […] The plates were read on a Beckman Paradigm reader with excitation 360 nm and emission 465 nm. Fluorescence measurements were performed with kinetic read every 5 minutes for 60 min at room temperature. Data were analyzed in Excel (IDBS XLfit Add-In) using a Linear Regression (y=k*x+m) model to prepare a human recombinant FAP standard curve.
On the day of the assay, plasma was diluted (1:2) to 20 μL volume in buffer (PBS, 0.1% BSA) and 7.5 μL was transferred to the assay plate (384-well black, fluotrack PS, Greiner 781076). Ala-Pro-AMC (stock solution in 10 mM DMSO) was diluted in buffer (PBS, 0.1% BSA) to 150 μM concentration (180 μL stock solution to 12 mL buffer) and 7.5 μL added to the assay plate followed by a pipetting mix. The plates were read on a Beckman Paradigm reader with excitation 360 nm and emission 465 nm. Fluorescence measurements were performed with kinetic read every 5 minutes for 60 minutes at room temperature. As noted above, FAP cleaves Ala-Pro-AMC to release free AMC which is measured as a fluorescent signal.
The in vivo potency IC50 of each test compound was then estimated by relating the plasma exposure C of the compound to target engagement E in plasma using the following equation:
where E0 is the FAP baseline in plasma prior to dosing and Imax is the maximum effect of the compound. Data from each target engagement experiment were considered separately and therefore slightly different estimates of FAP baseline for each compound were obtained. […] The parameter estimation was done in Phoenix WinNonlin Certara build 8.1.0.3530 with the algorithm ‘Naïve pooled’ as parameter estimation method.

[11] = Solubility, kinetic solubility, n = 1 or average of n = 2-3
[12] = HLM CLint, n = 1 or average of n = 2-3

human Fibroblast activation protein alpha (hFAP), sequence (Q12884 38-760): as the sequence (Q12884 38-760) above
hFAP (M39-A757), sequence (Q12884 39-757): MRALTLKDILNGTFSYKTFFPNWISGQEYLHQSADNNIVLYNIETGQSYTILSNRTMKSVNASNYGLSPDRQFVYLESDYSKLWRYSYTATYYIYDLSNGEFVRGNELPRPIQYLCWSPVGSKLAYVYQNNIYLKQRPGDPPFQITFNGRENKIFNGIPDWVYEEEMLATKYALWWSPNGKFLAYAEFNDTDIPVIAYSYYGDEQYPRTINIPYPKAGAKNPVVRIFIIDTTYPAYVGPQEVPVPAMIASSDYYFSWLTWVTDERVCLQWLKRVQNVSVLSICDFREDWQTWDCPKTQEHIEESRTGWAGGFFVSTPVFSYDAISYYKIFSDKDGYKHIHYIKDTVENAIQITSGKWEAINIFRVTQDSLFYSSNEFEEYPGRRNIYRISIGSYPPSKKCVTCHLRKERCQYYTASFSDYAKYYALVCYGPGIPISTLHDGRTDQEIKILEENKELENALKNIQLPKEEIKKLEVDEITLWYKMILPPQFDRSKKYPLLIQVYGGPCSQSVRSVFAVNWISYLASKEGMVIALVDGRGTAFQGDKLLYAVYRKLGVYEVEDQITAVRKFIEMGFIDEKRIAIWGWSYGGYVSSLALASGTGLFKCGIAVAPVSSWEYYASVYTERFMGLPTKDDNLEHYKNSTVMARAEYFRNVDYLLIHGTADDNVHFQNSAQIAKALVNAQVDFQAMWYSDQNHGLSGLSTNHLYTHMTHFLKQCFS
Prolyl endopeptidase, Prolyl Oligopeptidase (hPREP), sequence (P48147 whole entry): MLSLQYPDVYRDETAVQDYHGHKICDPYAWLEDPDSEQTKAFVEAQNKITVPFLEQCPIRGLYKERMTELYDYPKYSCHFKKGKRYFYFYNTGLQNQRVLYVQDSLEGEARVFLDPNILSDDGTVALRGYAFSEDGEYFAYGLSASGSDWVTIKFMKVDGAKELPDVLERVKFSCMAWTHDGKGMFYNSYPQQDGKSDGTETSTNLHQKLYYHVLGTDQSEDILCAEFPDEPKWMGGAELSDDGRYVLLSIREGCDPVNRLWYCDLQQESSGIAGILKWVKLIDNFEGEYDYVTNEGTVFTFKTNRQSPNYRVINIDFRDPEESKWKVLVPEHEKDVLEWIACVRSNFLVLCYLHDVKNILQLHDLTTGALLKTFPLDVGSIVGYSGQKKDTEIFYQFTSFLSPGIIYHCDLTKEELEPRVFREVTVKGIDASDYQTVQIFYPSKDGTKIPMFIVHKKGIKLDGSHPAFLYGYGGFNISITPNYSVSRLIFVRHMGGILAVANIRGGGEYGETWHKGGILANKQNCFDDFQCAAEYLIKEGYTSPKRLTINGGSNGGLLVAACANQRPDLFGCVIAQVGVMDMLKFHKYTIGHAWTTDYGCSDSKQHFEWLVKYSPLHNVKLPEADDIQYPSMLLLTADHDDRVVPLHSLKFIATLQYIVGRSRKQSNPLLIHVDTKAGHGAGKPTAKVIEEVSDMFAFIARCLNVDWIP
FAP (Mus musculus (Mouse), UniProt P97321), sequence (P97321 24-761): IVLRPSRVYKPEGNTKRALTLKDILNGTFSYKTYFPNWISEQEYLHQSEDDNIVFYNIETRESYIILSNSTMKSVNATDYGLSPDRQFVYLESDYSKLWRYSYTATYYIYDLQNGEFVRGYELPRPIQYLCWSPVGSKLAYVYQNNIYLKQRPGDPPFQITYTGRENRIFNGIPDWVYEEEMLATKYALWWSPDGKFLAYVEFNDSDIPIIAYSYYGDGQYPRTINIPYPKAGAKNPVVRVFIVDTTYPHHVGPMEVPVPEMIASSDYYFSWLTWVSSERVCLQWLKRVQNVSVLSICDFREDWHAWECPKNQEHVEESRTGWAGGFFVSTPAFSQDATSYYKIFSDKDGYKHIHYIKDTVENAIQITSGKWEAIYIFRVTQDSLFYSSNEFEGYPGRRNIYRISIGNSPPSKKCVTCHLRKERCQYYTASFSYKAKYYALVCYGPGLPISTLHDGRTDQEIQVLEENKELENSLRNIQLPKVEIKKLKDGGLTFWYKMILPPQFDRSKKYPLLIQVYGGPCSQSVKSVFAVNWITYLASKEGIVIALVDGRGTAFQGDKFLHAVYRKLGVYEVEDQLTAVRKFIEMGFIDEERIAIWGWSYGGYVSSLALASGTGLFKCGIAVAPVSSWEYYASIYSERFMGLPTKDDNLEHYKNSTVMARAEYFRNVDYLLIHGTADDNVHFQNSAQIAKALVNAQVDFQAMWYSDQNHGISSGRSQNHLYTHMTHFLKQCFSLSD
Fibroblast Activation Protein alpha (FAP), sequence (P97321 24-761): as above

COC1CCN(c2ccc3nccc(C(=O)NCC(=O)N4CSC[C@H]4C#N)c3c2)CC1 [Example 8, (R)—N-(2-(4-Cyanothiazolidin-3-yl)-2-oxoethyl)-6-(4-methoxypiperidin-1-yl)quinoline-4-carboxamide]
IC50 (FAP [1]): 0.2 nM | IC50 [2]: > 100000 nM

N#C[C@@H]1CSCN1C(=O)CNC(=O)c1ccnc2ccc(N3CCC4(CCCCC4)OC3=O)cc12 [Example 110, (R)—N-(2-(4-cyanothiazolidin-3-yl)-2-oxoethyl)-6-(2-oxo-1-oxa-3-azaspiro[5.5]undecan-3-yl)quinoline-4-carboxamide]
IC50 [2]: > 100000 nM | solubility (Kinetic solubility): 950 µM (≈ 469 µg/mL) | rHep CLint [3]: 3.3 μL/min/1E6 | microsomal CLint [4]: 39 µL/min/mg

CC(=O)N1CC2(C1)CN(c1ccc3nccc(C(=O)NCC(=O)N4CSC[C@H]4C#N)c3c1)C2 [Example 184, (R)-6-(6-Acetyl-2,6-diazaspiro[3.3]heptan-2-yl)-N-(2-(4-cyanothiazolidin-3-yl)-2-oxoethyl)quinoline-4-carboxamide]
IC50 (FAP [5]): 0.4 nM | IC50 [6]: 0.22 nM | hFAP Binding assay k(off) (hFAP (M39-A757)): 0.000014 s⁻¹ | hFAP Binding assay k(on) (hFAP (M39-A757)): 950000 M⁻¹ s⁻¹ | Kd (hFAP (M39-A757)): 0.015 nM | IC50 (FAP [7]): 0.2 nM | IC50 (FAP [1]): 0.6 nM | IC50 [8]: 1100 nM | hHep CLint [9]: <1 μL/min/1E6 | solubility (Kinetic solubility; [11]): 930 µM (≈ 432 µg/mL) | Papp (Caco-2 cell permeability): 0.1 ×10⁻⁶ cm/s | Papp A→B (Caco-2 cell permeability): 0.25 ×10⁻⁶ cm/s | Papp B→A (Caco-2 cell permeability): 0.78 ×10⁻⁶ cm/s | efflux ratio (Caco-2 cell permeability): 3.1 | rHep CLint [3]: <1 μL/min/1E6 | microsomal CLint [4, 12]: < 3 µL/min/mg

N#C[C@@H]1CSCN1C(=O)CNC(=O)c1ccnc2ccc(N3C4CCC3COC4)cc12 [Example 98, 6-(3-Oxa-8-azabicyclo[3.2.1]octan-8-yl)-N-(2-((R)-4-cyanothiazolidin-3-yl)-2-oxoethyl)quinoline-4-carboxamide]
IC50 (FAP [5]): 0.27 nM | IC50 [6]: 0.11 nM | hFAP Binding assay k(off) (hFAP (M39-A757)): 0.000015 s⁻¹ | hFAP Binding assay k(on) (hFAP (M39-A757)): 1600000 M⁻¹ s⁻¹ | Kd (hFAP (M39-A757)): 0.0088 nM | IC50 (FAP [7]): 0.2 nM | IC50 (FAP [1]): 0.4 nM | IC50 [8]: 790 nM | hHep CLint [9]: 1.8 μL/min/1E6 | solubility (Kinetic solubility; [11]): > 1000 µM | Papp (Caco-2 cell permeability): 8.6 ×10⁻⁶ cm/s | Papp A→B (Caco-2 cell permeability): 0.71 ×10⁻⁶ cm/s | Papp B→A (Caco-2 cell permeability): 18 ×10⁻⁶ cm/s | efflux ratio (Caco-2 cell permeability): 25 | rHep CLint [3]: 13 μL/min/1E6 | microsomal CLint [4, 12]: 26 µL/min/mg

N#C[C@@H]1CSCN1C(=O)CNC(=O)c1ccnc2ccc(N3C[C@@H](F)[C@@H](F)C3)cc12 [Example 50, N-(2-((R)-4-Cyanothiazolidin-3-yl)-2-oxoethyl)-6-((3R,4S)-3,4-difluoropyrrolidin-1-yl)quinoline-4-carboxamide]
IC50 (FAP [5]): 0.34 nM | IC50 [6]: 0.069 nM | Kd (hFAP (M39-A757)): 0.071 nM | IC50 (FAP [7]): 0.3 nM | IC50 (FAP [1]): 0.5 nM | IC50 [8]: 540 nM | hHep CLint [9]: 1.7 μL/min/1E6 | solubility (Kinetic solubility; [11]): 33 µM (≈ 14.2 µg/mL) | Papp A→B (Caco-2 cell permeability): 0.83 ×10⁻⁶ cm/s | Papp B→A (Caco-2 cell permeability): 27 ×10⁻⁶ cm/s | efflux ratio (Caco-2 cell permeability): 32 | rHep CLint [3]: 20 μL/min/1E6 | microsomal CLint [4, 12]: 13 µL/min/mg

N#C[C@@H]1CSCN1C(=O)CNC(=O)c1ccnc2ccc(N3CC(C(F)F)C3)cc12 [Example 28, (R)—N-(2-(4-Cyanothiazolidin-3-yl)-2-oxoethyl)-6-(3-(difluoromethyl)-azetidin-1-yl)quinoline-4-carboxamide]
IC50 (FAP [5]): 0.26 nM | IC50 [6]: 0.1 nM | hFAP Binding assay k(off) (hFAP (M39-A757)): 0.00011 s⁻¹ | hFAP Binding assay k(on) (hFAP (M39-A757)): 1100000 M⁻¹ s⁻¹ | Kd (hFAP (M39-A757)): 0.11 nM | IC50 (FAP [7]): 0.2 nM | IC50 (FAP [1]): 0.5 nM | IC50 [8]: 580 nM | hHep CLint [9]: 2.6 μL/min/1E6 | solubility (Kinetic solubility; [11]): 73 µM (≈ 31.5 µg/mL) | Papp (Caco-2 cell permeability): 21 ×10⁻⁶ cm/s | Papp A→B (Caco-2 cell permeability): 1.6 ×10⁻⁶ cm/s | Papp B→A (Caco-2 cell permeability): 20 ×10⁻⁶ cm/s | efflux ratio (Caco-2 cell permeability): 12 | rHep CLint [3]: 13 μL/min/1E6 | microsomal CLint [4, 12]: < 3 µL/min/mg

N#C[C@@H]1CSCN1C(=O)CNC(=O)c1ccnc2ccc(-c3ccc(C(F)F)nc3)cc12 [Example 169, (R)—N-(2-(4-cyanothiazolidin-3-yl)-2-oxoethyl)-6-(6-(difluoromethyl)pyridin-3-yl)quinoline-4-carboxamide]
IC50 (FAP [5]): 0.22 nM | IC50 [6]: 0.057 nM | hFAP Binding assay k(off) (hFAP (M39-A757)): 0.00096 s⁻¹ | hFAP Binding assay k(on) (hFAP (M39-A757)): 6200000 M⁻¹ s⁻¹ | Kd (hFAP (M39-A757)): 0.16 nM | IC50 [8]: 440 nM | IC50 [10]: 1.4 nM | solubility (Kinetic solubility; [11]): 26 µM (≈ 11.8 µg/mL) | rHep CLint [3]: 8.8 μL/min/1E6 | microsomal CLint [4, 12]: 18 µL/min/mg

N#C[C@@H]1CSCN1C(=O)CNC(=O)c1ccnc2ccc(N3CC4(COC4)C3)cc12 [Example 166, (R)—N-(2-(4-Cyanothiazolidin-3-yl)-2-oxoethyl)-6-(2-oxa-6-azaspiro[3.3]heptan-6-yl)quinoline-4-carboxamide]
IC50 (FAP [5]): 0.34 nM | IC50 [6]: 0.22 nM | hFAP Binding assay k(off) (hFAP (M39-A757)): 0.000049 s⁻¹ | hFAP Binding assay k(on) (hFAP (M39-A757)): 2200000 M⁻¹ s⁻¹ | Kd (hFAP (M39-A757)): 0.03 nM | IC50 (FAP [7]): 0.3 nM | IC50 (FAP [1]): 0.6 nM | IC50 [8]: 1700 nM | hHep CLint [9]: <1 μL/min/1E6 | solubility (Kinetic solubility): > 910 µM | Papp (Caco-2 cell permeability): 2 ×10⁻⁶ cm/s | Papp A→B (Caco-2 cell permeability): 0.56 ×10⁻⁶ cm/s | Papp B→A (Caco-2 cell permeability): 13 ×10⁻⁶ cm/s | efflux ratio (Caco-2 cell permeability): 24 | rHep CLint [3]: <1 μL/min/1E6 | microsomal CLint [4]: < 3 µL/min/mg

N#C[C@@H]1CSCN1C(=O)CNC(=O)c1ccnc2ccc(N3CCC4(CCCC4)OC3=O)cc12 [Example 111, (R)—N-(2-(4-cyanothiazolidin-3-yl)-2-oxoethyl)-6-(7-oxo-6-oxa-8-azaspiro[4.5]decan-8-yl)quinoline-4-carboxamide]
IC50 [2]: > 100000 nM

N#C[C@@H]1CSCN1C(=O)CNC(=O)c1ccnc2ccc(N3CCC(F)CC3)cc12 [Example 205, (R)—N-(2-(4-Cyanothiazolidin-3-yl)-2-oxoethyl)-6-(4-fluoropiperidin-1-yl)quinoline-4-carboxamide]
hFAP Binding assay k(off) (hFAP (M39-A757)): 0.000046 s⁻¹ | hFAP Binding assay k(on) (hFAP (M39-A757)): 2100000 M⁻¹ s⁻¹ | IC50 (FAP [1]): 0.3 nM | IC50 [8]: 640 nM | IC50 [10]: 1.2 nM

N#C[C@@H]1CSCN1C(=O)CNC(=O)c1ccnc2ccc(-c3cnn(C4CC4)c3)cc12 [Example 170, (R)—N-(2-(4-Cyanothiazolidin-3-yl)-2-oxoethyl)-6-(1-cyclopropyl-1H-pyrazol-4-yl)quinoline-4-carboxamide]
hFAP Binding assay k(off) (hFAP (M39-A757)): 0.00018 s⁻¹ | hFAP Binding assay k(on) (hFAP (M39-A757)): 10000000 M⁻¹ s⁻¹ | IC50 (FAP [1]): 0.5 nM | IC50 [8]: 260 nM | IC50 [10]: 8.7 nM
